Measured values published in patent US20090181098A1, “Hmg-Co-a Reductase Inhibitor Enhancement of Bone and Cartilage” (OsteoScreen IP, LLC, priority 2006, published 2009).

Columns and labels:
[1] = poly(DL-lactide) nanoparticles
Protocol: The test material is lovastatin in nanoparticles prepared as described above. […] The test articles are nanoparticles with and without lovastatin. […] The lovastatin levels are determined by HPLC and the release curved is followed throughout the experiment.

neonatal murine calvaria = test: Neonatal murine calvarial explant culture, bone and cartilage formation; type: cell-based, mouse
Protocol: Four day old calvarial explant cultures were incubated with media containing scaffold material that releases 0, 0.4 or 8 μg/day. The extent of new cartilage is then quantitated by imaging analysis.
Experimental Design Four day old Swiss white pups were employed as they are generally a healthy mouse strain. Calvaria from 4-day old Swiss white mouse pup mice were dissected out and cut in half. The excised hemi-calvariae were placed on metal grids (at the surface) in 1 ml BGJ media with Fitton-Jackson modification BGJ media (Sigma) containing 0.1% BSA with glutamine. The bones are incubated at 37° C. in a 5% humidified incubator for a period of 24 h and then transferred to wells containing 1 ml media with test compounds and further incubated under the above conditions for 72-96 h. The bones are then removed, fixed in 10% buffered formalin for 24 h, decalcified in 14% EDTA overnight, embedded in paraffin and 4 μm-thick sections cut and stained with H&E.
Dosing. […] Calvaria are removed at day 7 and day 14. The media is changed every 3 days. Cartilage formation is assessed histologically.

[2] = Serum liver and muscle enzymes (ALT, AST, AP, LDH, CPK) and myotoxicity after dermal lovastatin; conditions: for ALT / AP / AST / CPK / LDH: end of 5 day treatment
Protocol: (§1) Blood samples were obtained at the end of the five day treatment for determination of liver and muscle enzymes (alanine aminotransferase (ALT), aspartate aminotransferase (AST), alkaline phosphatase (AP), and lactic dehydrogenase (LDH) by radioimmunoassays (Esoterix, San Antonio, Tex.). Kinetic quantitative determination of […] (CPK) in serum was estimated using a kit from Stanbio Laboratory (Boerne, Tex.). The concentration of osteocalcin was measured using a sandwich ELISA assay supplied by from Biomedical Technologies Inc.
Three-month old virgin female Sprague Dawley rats were purchased from Harlan Laboratories, LTD (Indianapolis, Ind.). Experiments were performed using either intact, bilaterally ovariectomized (OVX) or sham-operated (SHAM) rats with treatment starting 5 days after surgery in the latter groups. Rats were weight-matched and divided into treatment groups (n=10). Compounds were administered by daily transdermal application for 5 days only or 5 days/week for 5 weeks when specified. Animals were pair-fed throughout the experimental period and weekly body weights determined and dosage adjusted accordingly. At the completion of the experiment, animals were anesthetized with a ketamine (10 mg/ml) at a dose of 100 mg/kg body weight and euthanized by cervical dislocation.

osteocalcin = test: Serum osteocalcin (sandwich ELISA) in OVX rats; type: in vivo, rat; conditions: dermal gel 0.01 mg/kg/day for 5 days, day 26
Protocol: as §1

[3] = test system: ovariectomized (OVX) rats; test: Effects of transdermal lovastatin on bone in ovariectomized rats (histomorphometry); type: in vivo, rat
Protocol: Following sacrifice, both femurs and tibiae were removed, cleaned of soft tissue, fixed in 10% formalin for 48 hours, and then stored in 70% ETOH and prepared for histology. Histomorphometric analysis was performed using a semiautomated Osteomeasure System (Osteometrics, Inc., Atlanta, Ga.) and digitizing pad and by following standard histomorphometric techniques. Bone volume, trabecular number, thickness and separation, cell number and dynamic parameters were determined as described previously by Parfitt et al. [Parfitt A M (1988) Bone histomorphometry: standardization of nomenclature, symbols and units. Summary of proposed system. J Bone Miner Res 4:1-5.]. Bone formation rates (BFR) and mineral apposition rates (MAR) were measured in plastic-embedded sections following demeclocycline and calcein injections (15 and 20 mg/kg/body weight respectively) given intraperitoneally at 10 and 4 days before sacrifice. Values for MAR were corrected for obliquity of the plane of section in cancellous bone. Rats were evaluated with a mouse densitometer, Piximus (GE Medical Systems); bone mineral density (BMD), calculated by dividing bone mineral content (g) by the projected bone area (cm^2), was assessed for the proximal third of the tibia at time 0 and at 5 weeks. Micro-computed tomography (μ-CT) analysis of the rat distal femur was kindly performed by Phil Salmon (Skyscan, Belgium). Bones were scanned using the Skyscan Model 1072 employing an x-ray tube voltage of 100 kV, and magnified to attain a pixel size of 10.13 μm. Data are expressed as the mean standard error (SEM). Statistical differences between groups were evaluated with one-way analysis of variance (ANOVA). […] P<0.05 were considered significant.

femur fracture model = test system: femur fracture model
Description: In accordance with the study, the clinical focus involves creating uniform and reproducible fracture defects utilizing a pinned closed transverse rat femoral model chosen because it has been well defined and fully characterized by mechanical and histologic methods. Advantages of this model include reproducibility, defect uniformity, and a rapid 5 weeks to clinical union healing phase. The properties of the bioactive coating are investigated in preliminary studies in vitro and in vivo using the explanted calvarial culture and the local calvarial injection model including drug-release kinetics, degradation and stability. The aims of the study are: (1) to evaluate the effect of controlled-released locally administered lovastatin on callus formation, progression and fracture healing using X-ray analysis of fracture healing. At the end of the experiment, the fractured limb will be excised and X-rayed after removal of stabilizing pins. These X-rays will be assessed for evidence of healing of the fracture. They will be scored by 3 independent observers for healing of the fracture; (2) to evaluate the effect of controlled released lovastatin on biomechanical parameters by three-point bending and micro computer tomography (uCT); and (3) to evaluate by uCT bone microarchitecture at callus site and bone healing. […]

[4] = dermal, hydrophilic petrolatum, 1 mg/kg/day
[5] = dermal, hydrophilic petrolatum, 5 mg/kg/day
[6] = aqueous alkanolic gel, lowest dose tested

CC[C@H](C)C(=O)O[C@H]1C[C@@H](C)C=C2C=C[C@H](C)[C@H](CC[C@@H]3C[C@@H](O)CC(=O)O3)[C@H]21 [lovastatin]
Release rate of lovastatin from nanoparticles [1]: about 2 %/day | Bone formation in cultures of neonatal murine calvaria (neonatal murine calvaria; 7 days after exposure): stimulates bone formation | Cartilage formation in cultures of neonatal murine calvaria (neonatal murine calvaria; 14 days after exposure, scaffold release 0.4 and 0.8 μg/24 h): stimulate cartilage formation in a dose response fashion | Change in liver and muscle skeletal tissue enzymes (AST, ALT, AP, LDH, CPK) ([2]; dermal, aqueous alkanolic gel, 0.01 to 0.5 mg/kg/day, end of treatment, sham/ovx rats): No significant changes | ALT [2, 4]: 55 ± 3 μ/L | AP [2, 4]: 123 ± 6 μ/L | AST [2, 4]: 110 ± 4 μ/L | CPK [2, 4]: 441 ± 61 μ/L | LDH [2, 4]: 349 ± 47 μ/L | ALT [2, 5]: 57 ± 2 μ/L | AP [2, 5]: 115 ± 5 μ/L | AST [2, 5]: 128 ± 7 μ/L | CPK [2, 5]: 578 ± 45 μ/L | LDH [2, 5]: 528 ± 67 μ/L | Change in liver and muscle enzymes (ALT, AST, AP, LDH, CPK) vs vehicle ([2]; dermal, hydrophilic petrolatum, 1 and 5 mg/kg/day, 5 days): No changes | Serum creatine protein kinase (CPK), treated groups vs control ([2]; hydroalcoholic gel, 5 days, sham and ovx rats): No significant changes | Non-myotoxic dose (50 mg/kg/day) relative to effective dose (0.01 mg/kg) ([2]; transdermal): 5000 fold | Myotoxicity by CPK measurements and morphologic examination of skeletal muscles ([2]; transdermal, doses up to 50 mg/kg/day): not observed | Serum osteocalcin levels (osteocalcin): significant increase in osteocalcin levels | Effective transdermal dose as fraction of the dose required orally for an effect on bone formation ([3]; 0.01 mg/kg transdermal vs oral dose of Mundy et al. 1999): approximately 1/1000 | Bone formation rates ([3]; 5 days of transdermal exposure, 0.01 mg/kg body weight): markedly increased | Trabecular number [3, 6]: significant increase in trabecular number | Trabecular separation [3, 6]: significant decrease in trabecular separation | Increase in bone volume vs OVX rats treated with vehicle ([3]; dermal 1 mg/kg/day, 5 days (FIG. 4)): 50% | Bone formation rates (BFR) ([3]; dermal, 5 day administration (FIG. 6)): significant increase | OVX-induced changes in trabecular thickness, number and separation ([3]; dermal, 5 days (FIG. 5)): partly prevented these changes | Bone volume by histomorphometry ([3]; dermal, aqueous alkanolic gel, 0.01 to 0.5 mg/kg/day for 5 days, significant at 0.01 mg/kg/day): increased bone volume at all the doses tested | Increase in bone volume vs vehicle-treated OVX rats ([3]; dermal, hydroalcoholic gel, 0.01 to 0.5 mg/kg/day for 5 days, proximal tibiae, four weeks after dosing): > 40% | Increase in bone volume vs vehicle-treated OVX rats ([3]; dermal, hydrophilic petrolatum, 5 days, even at the lowest dose (FIG. 3b)): > 50% | Cancellous bone connectivity (trabecular thickness, number, separation, star volume, fractal dimension, pattern factor) ([3]; transdermal): increased cancellous bone connectivity | Lowest lovastatin amount tested giving a significant increase in radiographic score (femur fracture model; released from nanobeads at fracture site): 0.2 µg/day | Lovastatin release giving maximum radiographic score (femur fracture model; single injection of nanobeads at fracture site, 2 weeks): 1.5 µg/day
